Assay results published in patent US9839669B2 (priority 2011, dated 2017).
Where two headings read alike, the source gives them in different places.

Tests used:
HSV-1 = type: cell-based, Herpes simplex viruses type 1; conditions: Aciclovir 1.5 mmol

In the case of `Nc1nc2c(ncn2COCCO)c(=O)[nH]1` [Aciclovir], the cytotoxicity (Vero cells) was “negative”, the Average relative inhibition (HSV-1; average over virus dilutions) was 100 and the “Number of plaque, Mean value” (HSV-1; virus dilution 10^−5.0) was 0. The Relative infectiosity (HSV-1; virus dilution 10^−5.0) was 0, the Relative inhibition (HSV-1; virus dilution 10^−5.0) was 100 and the “Number of plaque, Mean value” (HSV-1; virus dilution 10^−5.48) was 0. The Relative infectiosity (HSV-1; virus dilution 10^−5.48) was 0, the Relative inhibition (HSV-1; virus dilution 10^−5.48) was 100 and the “Number of plaque, Mean value” (HSV-1; virus dilution 10^−5.95) was 0. The Relative infectiosity (HSV-1; virus dilution 10^−5.95) was 0, the Relative inhibition (HSV-1; virus dilution 10^−5.95) was 100 and the cytotoxicity (BGM cells) was “negative”.
